# Experiments:
# Assay type in all cases: cell-based
# [1] = system: MelanoDerm™ (Mattek Corp.) tissues; assay: MelanoDerm™ assay: melanin content in reconstructed skin tissues; conditions: 336 h, 14 days of treatment, melanin content normalized on protein content, read-out: % inhibition relative to negative control
# Description: Phenotypic skin lightening was assessed in reconstructed skin using MelanoDerm™ (Mattek Corp.) tissues (Figure 1).
# Controls were: negative control (ultrapure water) and positive control (10 µM Ketoconazol). Test compounds were prepared in DMSO with a concentration of 10 mM and diluted in EPI-100-LLM medium (Mattek Corp.) to a final concentration of 25 µM.
# MelanoDerm™ tissues were equilibrated in pre-warmed EPI-100-LLMM medium (6-Well plates, 5 ml per well) for 1 h (37°C, 5 % CO2) before treatment. Test compounds were applied systemically by addition into the culture medium. […] At the end of the treatment, tissues were analyzed via macroscopic/microscopic images and in vitro assay, for viability and for melanin content. […] Cytotoxicity was assessed using microscopic tissue images (10× magnification). Tissue viability as a result of test compound relative to negative control was determined using Cell Proliferation Reagent WST-1 (cat# 05015944001, Roche). For melanin quantitation tissues were submerged for 5 min in phosphate buffered saline (PBS, 5 ml), removed from PBS and rinsed with additional 2 ml PBS. […] All incubated samples were centrifuged at 13,000 rpm for 5 min and the optical density of the supernatant (200 µl) was measured at 490 nm. The amount of melanin (µg) from each tissue sample was determined using the melanin standard samples calibration curve. […]
# MC4-R = target: T1, MC4-R (Homo sapiens, UniProt P32245); assay: Determination of compound activity on MC4-R (antagonist testing, Fluo-4 Ca2+ fluorescence in HEK293/Gα15 cells); conditions: Figure 2; 25 µM, added 10 min prior stimulation with αMSH (EC80)
# T1 construct: MC4-R cDNA expression results in MC4-R protein NP_005903.2; expressed in transfected cells; host or cells: HEK293/Gα15 cells
# From the text: (§1) HEK293 cells stably expressing the target receptor MC4-R and the promiscuous murine Gα15 protein were established on basis of the above-mentioned HEK293/Gα15 cell line. These cells were further transfected with an expression vector comprising the human MC4-receptor cDNA. MC4-R cDNA expression results in MC4-R protein NP_005903.2.
# (§2) Stimulation of MC4-R with αMSH increases intracellular Ca^2+-concentration, inhibition of MC4-R decreases these αMSH induced Ca^2+-responses. Changes in intracellular Ca^2+-levels were measured via the Ca^2+-sensitive fluorescent dye Fluo-4 in a fluorescent plate reader.
# (§3) For antagonist-testing, test compound was added to cells with a final concentration of 25 µM 10 min prior stimulation with αMSH (using EC80). The threshold for antagonistic activity was defined as 70% of the positive control αMSH (the EC80 value is set as 100%), and the assay was accepted as valid if the standard deviation of the αMSH signal is 10% or less.
# MC1-R = target: T2, MC1-R (Homo sapiens, UniProt Q01726, A105V); assay: Determination of compound activity on MC1-R (antagonist testing, Fluo-4 Ca2+ fluorescence in HEK293/Gα15/MC1-R cells); conditions: 25 µM
# T2 construct: MC1-R cDNA expression results in the corresponding protein (NP_002377.4); expressed in transfected cells
# T2 sequence (Q01726 1-317 A105V): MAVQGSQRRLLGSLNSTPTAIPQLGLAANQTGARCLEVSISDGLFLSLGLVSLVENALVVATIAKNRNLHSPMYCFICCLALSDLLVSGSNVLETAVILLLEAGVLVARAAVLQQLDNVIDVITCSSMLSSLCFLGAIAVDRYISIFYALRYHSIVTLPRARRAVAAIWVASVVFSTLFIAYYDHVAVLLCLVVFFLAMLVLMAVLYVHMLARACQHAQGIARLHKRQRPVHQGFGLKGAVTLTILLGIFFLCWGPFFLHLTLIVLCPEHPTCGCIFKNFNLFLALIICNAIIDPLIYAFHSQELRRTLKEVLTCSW
# From the text: A MC1-R expressing cell line for assessing melanogenesis modulating activity was established based on engineered HEK 293 cells, stably expressing the murine G-protein Gα15 (NM_010304.3). The promiscuous Gα15 protein couples to MC1-R and therefore links receptor stimulation to Ca^2+-signaling.
# To achieve a stable expression of the target receptor this HEK293/Gα15 cell line was further stably transfected with an expression vector for the human MC1-R receptor. MC1-R cDNA expression results in the corresponding protein (NP_002377.4 with an amino acid replacement at position 105 (A105V)).
# HEK293 cells stably expressing the target receptor MC1-R and the promiscuous murine Gα15 protein (HEK293/Gα15/MC1-R) were established as described above. […] Changes in internal Ca^2+-concentration are measured via the Ca^2+-sensitive fluorescent dye Fluo-4 (2-{[2-(2-{5-[bis(carboxymethyl)amino]-2-methyl-phenoxy}ethoxy)-4-(2,7-difluoro-6-hydroxy-3-oxo-3H-xanthen-9-yl)phenyl](carboxymethyl)amino}acetic acid) in a fluorescence plate reader (FLEX-Station, Molecular Devices) at an excitation wavelength of 488nm and emission of 535nm.
# Recombinant HEK293/Gα15/MC1-R cells were cultured in DMEM with 10% FBS, 2mM glutamine, 1,3 mg/ml geneticin and 5 µg/ml blasticidin. Cells were seeded in 96 well, poly-D-lysine coated, black well/ clear bottom fluorescence plates in medium without antibiotics. […]
# MC3-R = target: T3, MC3-R (Homo sapiens, UniProt P41968); assay: Determination of compound activity on MC3-R (antagonist testing, Fluo-4 Ca2+ fluorescence in HEK293/Gα15 cells); conditions: Figure 2; 25 µM, added 10 min prior stimulation with αMSH (EC80)
# T3 construct: MC3-R cDNA expression results in MC3-R protein NP_063941.3; expressed in transfected cells; host or cells: HEK293/Gα15 cells
# From the text: as §1, with “MC3-R” for “MC4-R”, “MC3-receptor” for “MC4-receptor”, “NP_063941.3.” for “NP_005903.2.”
# Stimulation of MC3-R with αMSH increases intracellular Ca^2+-concentration, inhibition of MC3-R decreases these αMSH induced Ca^2+-responses. Changes in intracellular Ca^2+-levels were measured via the Ca^2+-sensitive fluorescent dye Fluo-4 in a fluorescent plate reader.
# as §3
# MC5-R = target: T4, MC5-R (Homo sapiens, UniProt P33032); assay: Determination of compound activity on MC5-R (antagonist testing, Fluo-4 Ca2+ fluorescence in HEK293/Gα15 cells); conditions: Figure 2; 25 µM, added 10 min prior stimulation with αMSH (EC80)
# T4 construct: MC5-R cDNA expression results in MC5-R protein NP_005904.1; expressed in transfected cells; host or cells: HEK293/Gα15 cells
# From the text: HEK293 cells stably expressing the target receptor MC5-R and the promiscuous murine Gα15 protein were established on the basis of the above-mentioned HEK293/Gα15 cell line. These cells were further transfected with an expression vector comprising the human MC5-receptor cDNA. MC5-R cDNA expression results in MC5-R protein NP_005904.1.
# Stimulation of MC5-R with αMSH increases intracellular Ca^2+-concentration, inhibition of MC5-R decreases these αMSH induced Ca^2+-responses. Changes in intracellular Ca^2+-levels were measured via the Ca^2+-sensitive fluorescent dye Fluo-4 in a fluorescent plate reader.
# as §3
# MC2-R = target: T5, MC2-R (Homo sapiens, UniProt Q01718); assay: Determination of compound activity on MC2-R (antagonist testing, Fluo-4 Ca2+ fluorescence in HEK293/Gα15 cells with MC2-R and MRAP); conditions: Figure 2; 25 µM, added 10 min prior addition of ACTH (EC80)
# T5 construct: MC2-R cDNA expression results in MC2-R protein NP_000520.1; expressed in transfected cells; host or cells: HEK293/Gα15 cells
# From the text: HEK293 cells stably expressing the target receptor MC2-R, the accessory protein MRAP and the promiscuous murine Gα15 protein were established on basis of the above-mentioned HEK293/Gα15 cell line. These cells were further transfected with an expression vector comprising human MC2-receptor and additional MRAP (MC2-Receptor Accessory Protein) cDNA. MC2-R cDNA expression results in MC2-R protein NP_000520.1, MRAP cDNA expression results in MRAP protein NP_848932.1.
# as §2, with “of MC2-R” for “of MC4-R”, “with ACTH (adrenocorticotropic hormone)” for “with αMSH”, “these ACTH” for “these αMSH”
# as §3, with “addition of ACTH (EC80).” for “stimulation with αMSH (using EC80).”, “defined in this experiment” for “defined”, “ACTH” for “αMSH”
# T3 sequence (P41968 whole entry): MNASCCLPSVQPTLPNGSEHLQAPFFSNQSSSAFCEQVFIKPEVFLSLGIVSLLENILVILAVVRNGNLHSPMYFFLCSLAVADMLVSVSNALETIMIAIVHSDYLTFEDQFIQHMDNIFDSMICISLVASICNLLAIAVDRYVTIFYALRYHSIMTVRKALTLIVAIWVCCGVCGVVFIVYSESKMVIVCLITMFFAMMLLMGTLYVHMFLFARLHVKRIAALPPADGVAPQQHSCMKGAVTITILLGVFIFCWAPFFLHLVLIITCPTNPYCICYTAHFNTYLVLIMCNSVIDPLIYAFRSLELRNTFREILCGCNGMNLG
# T1 sequence (P32245 whole entry): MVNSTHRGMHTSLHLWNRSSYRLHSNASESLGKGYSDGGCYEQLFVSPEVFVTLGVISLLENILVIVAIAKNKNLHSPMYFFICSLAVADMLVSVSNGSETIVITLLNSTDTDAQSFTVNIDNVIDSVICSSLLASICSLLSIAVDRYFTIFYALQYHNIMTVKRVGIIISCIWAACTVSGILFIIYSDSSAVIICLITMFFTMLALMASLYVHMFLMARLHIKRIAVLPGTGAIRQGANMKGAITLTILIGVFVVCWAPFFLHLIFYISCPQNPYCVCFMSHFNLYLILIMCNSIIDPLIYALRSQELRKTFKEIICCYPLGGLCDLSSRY
# T5 sequence (Q01718 whole entry): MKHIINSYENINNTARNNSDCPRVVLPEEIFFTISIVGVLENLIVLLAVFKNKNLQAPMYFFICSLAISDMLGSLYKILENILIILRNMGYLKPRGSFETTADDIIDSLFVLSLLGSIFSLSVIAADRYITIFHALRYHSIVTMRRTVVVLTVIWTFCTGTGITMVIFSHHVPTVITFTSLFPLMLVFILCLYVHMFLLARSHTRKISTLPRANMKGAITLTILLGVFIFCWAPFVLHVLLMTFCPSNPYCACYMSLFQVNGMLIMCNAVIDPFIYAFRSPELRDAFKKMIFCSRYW
# T5 sequence (Q8TCY5 whole entry partner): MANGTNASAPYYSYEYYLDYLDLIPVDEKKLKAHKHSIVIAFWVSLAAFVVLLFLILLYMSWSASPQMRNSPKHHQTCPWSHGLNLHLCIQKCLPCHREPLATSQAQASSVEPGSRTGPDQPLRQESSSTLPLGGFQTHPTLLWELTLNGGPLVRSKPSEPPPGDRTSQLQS
# T4 sequence (P33032 whole entry): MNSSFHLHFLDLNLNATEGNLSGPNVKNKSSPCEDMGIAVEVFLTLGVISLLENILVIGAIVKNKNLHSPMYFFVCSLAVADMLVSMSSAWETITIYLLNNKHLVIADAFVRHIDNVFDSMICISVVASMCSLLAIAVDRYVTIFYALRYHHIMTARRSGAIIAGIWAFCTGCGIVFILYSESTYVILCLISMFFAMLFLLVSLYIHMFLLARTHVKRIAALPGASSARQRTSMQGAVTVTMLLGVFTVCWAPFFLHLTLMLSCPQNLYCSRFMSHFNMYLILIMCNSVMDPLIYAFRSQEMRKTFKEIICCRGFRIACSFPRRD
Compound,inhibition at 25 µM ([1]; 25 µM in culture medium) [%],activity of MC4R (MC4-R),reduce MC1R activation by (MC1-R; added 10 min prior stimulation with αMSH (EC80 set as 100%)),"reduce MC1R activation to (MC1-R; Figure 2, αMSH (EC80) signal set as 100%, remaining activation)",activity of MC3R (MC3-R),activity of MC5R (MC5-R),activity of MC2R (MC2-R),inhibition at 10 µM ([1]; 10 µM in culture medium) [%]
COc1ccc(CSC(=N)N)cc1Br [Compound (III)],-53.4,not significantly affected,"51,3%",about 50%,not significantly affected,not significantly affected,not significantly affected,
"CC(=O)N1CCN(c2ccc(OCC3COC(Cn4ccnc4)(c4ccc(Cl)cc4Cl)O3)cc2)CC1 (centres unmarked) [Ketoconazol, reference compound]",,,,,,,,-70.9
